# According to patent US12565680B2, “Cancer neoantigens and their utilities in cancer vaccines and TCR-based cancer immunotherapy” (THE METHODIST HOSPITAL SYSTEM, priority 2018, dated 2026):
# Experiments:
# T-cell clones of 135TIL = experiment: IFN-γ ELISA with tumor-reactive T-cell clones of 135TIL; format: cell-based, human
# Description: Thus, immunogenic antigens can be generated from various sources or mechanisms [such as alternative ORFs, noncoding regions (3′ and 5′ UTRs, introns, noncoding RNA)]. […] All other tumor-reactive CD4^+ T-cell clones and CD8^+ T-cell clones recognized the mutation-derived neoantigens. […] To identify these two antigens recognized by these two CD4^+ T-cell clones, an Ii-fusion cDNA library derived from 135 mel tumor cells was constructed using experimental procedures. The Ii-fusion cDNA library pools (approximately 100 cDNA clones per pool) were transfected into 293IMDR3/DP4 or 293IMDR4/DP4 cells, followed by co-culturing with CD4^+ T-cell clones (135-1C1 or 135-1E1). After 2×10^5 cDNA clones, positive cDNA library pools that stimulate two T-cell clones, respectively, were identified based on IFN-γ release by ELISA (FIG. 6B). The positive pools were then transformed into Stbl3™ Escherichia coli, and single bacteria colonies were picked for plasmid DNA isolation. The screening assays were repeated in the same APCs transfected with the single cDNA-containing plasmids, and identified three clones that were able to stimulate 135-1C1 T cells, and two clones that reacted with 135-1E1 T cells (FIG. 6C). […] The 135-1E1 T cell-reactive cDNA clones encoded the product translated from an alternative reading frame of CTAG2 (LAGE1b) (FIG. 6C and FIG. 7A). […] LAGE1 is a cancer-testis antigen, with over 80% amino acid sequence identical to NY-ESO-1 protein, which is the most immunogenic tumor antigen identified to date. To define the T cell epitopes, wee generated a series of deletions and truncations of 3′ UTR region of ADIPOR2 gene, and narrowed down T cell epitope to a 26 aa peptide-coding sequence that stimulate 135-1C1 T cell response (FIG. 7D). Using similar approach, T cell epitopes were narrowed down to a 69 aa peptide-coding sequence of the LAGE1b alternative ORF2 for 135-1E1 T-cell recognition (FIG. 7E).
# Using systemic and multiple approaches, 8 cancer neoantigens were identified in 135 mel and 7 neoantigens in 136 mel. To understand the potential mechanisms that restrain the number of neoantigens that could induce T cell response, it was asked whether these neoantigens were equally recognized by T cells.
# T-cell cloning and expansion were performed. Briefly, T-cell clones from 135TILs were generated by a limited dilution (0.3 cell/well) in 96-well plates. Allogeneic PBMCs from normal donors were irradiated (60 Gy) and then seeded as feeder cells (7×10^4/well) in TCM containing 35 ng/ml OKT3 (anti-hCD3 antibody) (R&D Systems) and 35 ng/ml anti-hCD28 antibody (R&D Systems). On day 1, recombinant IL-2 was added to the final concentration of 300 IU/ml. On day 5, half of the culture medium was replaced with fresh TCM containing recombinant IL-2, and then the medium was changed every other day or when the medium color turned yellow. On day 14, T-cell clones were harvested, counted, tested for tumor reactivity. Tumor reactive T-cell clones were further expanded.
# (§1) 96-well tissue culture plates were coated with phosphate-buffered saline (PBS, GenDEPOT) containing 50 μg/ml poly-L-lysine (Millipore Sigma) at 37° C. 10 min later, the plates were rinsed twice with PBS. Tumor cells or 293-APCs were seeded at 5×10^4/well in the 96-well plate and cultured at 37° C., 5% CO2 for at least 4 h. For plasmid transfection, 250 ng of plasmid DNA were transfected into 293-APCs per well with 0.5 μl of Lipofectamine 2000 (Thermo Fisher Scientific) according to the manufacturer's instructions and incubated at 37° C., in 5% CO2 overnight. For peptide presentation, synthesized peptides (GeneScript) were added to each well at different final concentrations from 10^2 to 10^−4 μM and incubated at 37° C., 5% CO2. The cells transfected with plasmids or pulsed with peptides were washed with TCM twice, and then cocultured with T cells (1×10^5/well). After overnight culture, 50 μl of supernatant was collected for measuring cytokine release with an ELISA assay. […]
# 135TIL [1] = experiment: IFN-γ ELISA with bulk 135TIL (IVT-RNA electroporated 135EBV-B cells; peptide titration and truncation); format: cell-based, human; conditions: serially diluted peptides
# Procedure: Due to low transfection efficiency of EBV-B cells, in vitro transcribed (IVT) RNA of 24 TMGs were generated and then electroporated them into 135EBV-B cells, followed by adding 135TIL cells for antigen recognition based on cytokine release assay.
# as §1, with “(1×10^5/well).” for “(1×10^5/well). After overnight culture, 50 μl of supernatant was collected for measuring cytokine release with an ELISA assay.”
# 96-well microplate (Greiner Bio-one) was coated with 50 μl of PBS containing anti-human IFN-γ (Thermo Fisher Scientific, primary antibody, 1 μg/ml) per well and incubated at 4° C. overnight. […] The plate was read at OD450 nm. The concentration of IFN-γ was calculated by standard reading. […]
# 135TIL [2] = experiment: TCR β CDR3 repertoire analysis; design: species or system human; conditions: TCRβ CDR3 profiling
# Description: To address this issue, PCDHB16 neoantigen-specific CD4^+ T cells were isolated by FACS sorting of PCDHB16-neoantigen T cells from freshly generated bulk T cells after stimulated PCDHB16 neoepitope peptide-pulsed 135EBV-B cells. Using the similar approach, MPG-specific CD8+ T cells were also purified from freshly generated bulk T cells after stimulated MPG neoepitope peptide-pulsed 135EBV-B cells. Genomic DNAs were isolated from the two purified neoantigen-specific T cell populations, as well as the parental bulk T cells, and used as templates for TCR β-chain CDR3 repertoire amplification. […] After the amplicons (from PCDHB16-, MPG-specific T cells and bulk 135TIL) were subjected to deep-sequenced via next-generation sequencing (reads>100,000 per sample), followed by bioinformatic analysis and TCR repertoire alignment. […] The relative TCR sequence frequencies that were identical to those in PCDHB16-specific T cells and MPG-specific T cells were determined in total 135TIL cell population (FIG. 10F). […]
# Cytokine Secretion Assay-Detection Kit (MACS Miltenyi Biotec) was used in cell-surface IFN-γ staining based on a commercial protocol. […] Finally cells were washed with cold buffer and ready for flow cytometric analysis. […]
# 135TIL [3] = experiment: Intracellular staining of IFN-γ after neoantigen peptide stimulation, 135TIL; format: cell-based, human
# Procedure: T cells were stimulated by various in vitro methods, such as tumor cells, peptides or DNA encoding neoantigens, etc. and induced to release cytokines. Stimulated T cells were resuspended in 100 μl of Cytofix/Cytoperm solution (BD Biosciences) per well for microwell plates (or 250 μl for tubes) and incubated for 20 min at 4° C. for cell fixation. Fixed cells were permeabilized by washing twice in 1× Perm/Wash buffer (BD Biosciences). Then the fixed/permeabilized cells were thoroughly resuspended in 50 μl of 1× Perm/Wash buffer containing 1 μl of phycoerythrin (PE)-conjugated IFN-γ antibody (Thermo Fisher Scientific) and incubate at 4° C. for 30 min in the dark. After that the cells were washed twice with 1× Perm/Wash buffer and ready for flow cytometric analysis.
Sequence,"recognition of antigen peptides by specific T-cell clones (T-cell clones of 135TIL; peptide titration, 135-1C1 (ADIPOR2), 135-1E1 (LAGE1b))",recognition of titrated peptides by 135TIL (IFN-γ ELISA) (135TIL [1]),neoantigen-specific TCRs in the total 135TIL TCRs (135TIL [2]) [%],share of tumor-reactive CD8^+ T cells specific for the neoantigen (135TIL [3]) [%],CD8^+ T cells recognizing the neoantigen in the total T cell population (135TIL [3]; intracellular cytokine staining) [%],percentage of CD8^+ tumor-reactive T-cell clones recognizing the neoantigen (T-cell clones of 135TIL; 40 clones) [%],number of CD8^+ tumor-reactive T-cell clones recognizing the neoantigen (T-cell clones of 135TIL; of 40 clones)
"MKLTSLMCNPVKSPFFGCVCGHVPISMCVSTCSSLPTASCALDLTVLAENSHQVGA [ADIPOR2, 56 aa reading frame in the 3′UTR of gene ADIPOR2]",strongly recognized,little or no activity,,,,,
"YGMYFCMNISSQEDGACVLLRALEP [MPG, immunodominant MHC-I neoantigen of patient #135]",,,25.5,65,12.3,67.5,27
